# “And” between values parts separate entries of the source, which are not always exact repeats. Equal entries are not always repeated. Where no end group is shown, it is not given here.
# Tests used:
# Assay type in all cases: cell-based
# PTHR1 [1] = molecular target: T1, PTHR1 (Homo sapiens, UniProt Q03431); assay: cAMP accumulation assay (HTRF) in CHO-K1/Ga15/PTHR1 cells; parameters: host or cells: CHO-K1 (recombinant line CHO-K1/Ga15/PTHR1); conditions: for cAMP accumulation activity compared to control peptide: FIG. 3, PTH 1-34 positive control; for cAMP: relative to PTH [1-34], CHO-K1/Ga15/PTHR1 cells; for Emax: CHO-K1, cAMP assay, fitted dose-response maximum
# T1 sequence (Q03431 27-593): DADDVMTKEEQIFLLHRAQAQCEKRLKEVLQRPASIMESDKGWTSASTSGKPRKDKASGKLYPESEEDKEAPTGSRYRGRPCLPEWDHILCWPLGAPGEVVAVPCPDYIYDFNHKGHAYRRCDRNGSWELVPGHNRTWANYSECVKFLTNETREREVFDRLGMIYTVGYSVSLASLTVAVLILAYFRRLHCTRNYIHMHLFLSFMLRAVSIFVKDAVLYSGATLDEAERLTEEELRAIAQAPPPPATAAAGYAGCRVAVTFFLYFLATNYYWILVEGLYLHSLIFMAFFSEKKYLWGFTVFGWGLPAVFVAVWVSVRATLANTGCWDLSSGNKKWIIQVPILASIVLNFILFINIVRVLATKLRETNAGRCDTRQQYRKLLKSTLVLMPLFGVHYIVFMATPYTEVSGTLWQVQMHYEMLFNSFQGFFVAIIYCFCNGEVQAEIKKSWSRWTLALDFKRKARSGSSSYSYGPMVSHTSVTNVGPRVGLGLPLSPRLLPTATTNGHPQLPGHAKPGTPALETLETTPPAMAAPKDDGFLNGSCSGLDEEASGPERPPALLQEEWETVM
# Experimental: Cell suspension (5 μL) was seeded in 384-well plates at a density of 3,000 cells/well. Cells were treated with test samples (5 μL) or agonist (PTH 1-34) for 30 minutes at room temperature. cAMP-d2 working solution (5 μL) and anti-cAMP-Cryptate working solution (5 μL) were added to cells and incubated for 60 minutes at room temperature. The signal of the assay plate was read with PheraStar (BMG LABTECH, NC), an HTRF compatible reader.
# PTHR1 [2] = molecular target: T1, PTHR1; assay: β-arrestin2 recruitment BRET assay in transfected HEK293T cells; parameters: Flag (N); Life Technologies Corporation, CA (arrestin cDNA); host or cells: HEK293T (CRL-3216, ATCC); conditions: for −log10Slope: fitted curve slope; for −log10Slope / EC50: replicate plates; for β-arrestin2 assay activity compared to control peptide: FIG. 2, PTH 1-34 positive control; for β2-arrestin: relative to PTH [1-34], HEK293T cells, BRET
# Experimental: (§1) 18-24 hours post transfection, the Luciferase substrate Coelenterazine (NanoLight Technologies, AZ) was added to cells, a baseline BRET measurement was taken after 5 minutes incubation, and then serial dilutions of peptides, diluted in PBS (with 0.5 mM MgCl2+0.1% BSA FAF), were added to cells, and BRET signal was measured every 2 minutes for 30 minutes on Hybrid Multi-Mode Reader (Synergy Neo2, BioTek, VT). Seventy-five peptides were tested in the β-arrestin recruitment assay.
# PTHR1 [3] = molecular target: T1, PTHR1; assay: β-arrestin1 recruitment BRET assay in transfected HEK293T cells; parameters: Flag (N); Life Technologies Corporation, CA (arrestin cDNA); host or cells: HEK293T (CRL-3216, ATCC); conditions: for −log10Slope: fitted curve slope; for −log10Slope / EC50: replicate plates; for β1-arrestin: relative to PTH [1-34], HEK293T cells, BRET
# Experimental: as §1
# [4] = cAMP accumulation, fitted curve slope, replicate plates
# [5] = cAMP accumulation, replicate plates, read-out: −log10EC50 (converted)
# [6] = β-arrestin2 recruitment, read-out: −log10EC50 (converted)
# [7] = β-arrestin1 recruitment, read-out: −log10EC50 (converted)
# [8] = cAMP assay, fitted dose-response curve, read-out: −log10EC50 (converted)
# [9] = cAMP assay, fitted dose-response slope
Sequence,−log10Slope (PTHR1 [1]; [4]),EC50 (PTHR1 [1]; [5]),−log10Slope (PTHR1 [2]; β-arrestin2 recruitment),−log10Slope (PTHR1 [3]; β-arrestin1 recruitment),other results
GVAMLQILHDKAKVRAEYELREMLLRLLEEIF [Peptide R2-11],−11.3552,,,,EC50 (PTHR1 [1]): 2.01 µM
AVAEIQLMHQRAKWKLDLELAVSLRKILEDVY [Peptide R2-27],−4.343,0.0122 µM,−1.829 and −3.204,−7.323 and −7.877,cAMP accumulation activity compared to control peptide (PTHR1 [1]): activity similar to the control peptide; cAMP (PTHR1 [1]): +; EC50 (PTHR1 [2]; [6]): 22.6 nM and 8.32 nM; EC50 (PTHR1 [3]; [7]): 12 nM and 9.45 nM
AVAEIQLMHQRAKWKLELELKVKLLEILKDVY [Peptide R2-25],−10.1961,0.0129 µM,−3.2515 and −2.752,−3.965 and −2.819,cAMP accumulation activity compared to control peptide (PTHR1 [1]): activity similar to the control peptide; cAMP (PTHR1 [1]): +; β-arrestin2 assay activity compared to control peptide (PTHR1 [2]): increased activity as compared to control; β2-arrestin (PTHR1 [2]): ++; EC50 (PTHR1 [2]; [6]): 4.3 nM and 1.73 nM; EC50 (PTHR1 [3]; [7]): 2.59 nM and 5.42 nM
GVYAIQAMHDLAKIRAEYELREMLLRLLEEIF [Peptide R2-10],−8.781,32.5 µM,,,
GIAVLTILDLRAKLRAEYELREMLLRLLEEIF [Peptide R2-14],2.196,,,,EC50 (PTHR1 [1]): 5.21e-06 µM; cAMP accumulation activity compared to control peptide (PTHR1 [1]): increased activity as compared to the control peptide; cAMP (PTHR1 [1]): ++
AVAEIQLMHQRAKWRAEYELREMLLRLLEEIF [Peptide R1-96],,,,,Emax (PTHR1 [1]): 99.7%; cAMP accumulation activity compared to control peptide (PTHR1 [1]): activity similar to the control peptide; EC50 (PTHR1 [1]; [8]): 0.00986 µM; −log10Slope (PTHR1 [1]; [9]): −3.352; cAMP (PTHR1 [1]): +
GVAMLQIMHDLAKIKQELELKDSMKKILEDVL [Peptide R2-50],,,−1.169 and 10.26,−3.908 and −4.767,Emax (PTHR1 [1]): 99.8%; EC50 (PTHR1 [1]; [8]): 0.574 µM; −log10Slope (PTHR1 [1]; [9]): −8.416; β-arrestin2 assay activity compared to control peptide (PTHR1 [2]): increased activity as compared to control; β2-arrestin (PTHR1 [2]): ++; EC50 (PTHR1 [2]; [6]): 0.0304 nM; EC50 (PTHR1 [3]; [7]): 1200 nM
LILVKKIIDLRAYLRAEYELREMLLRLLEEIF [Peptide R2-21],−8.121,21.2 µM,,,
VDFEIQLMQQRAQWIADYRIREFLDKLIAEIF [Peptide R1-94],,,,,Emax (PTHR1 [1]): 90.8%; cAMP accumulation activity compared to control peptide (PTHR1 [1]): increased activity as compared to the control peptide; EC50 (PTHR1 [1]; [8]): 7.36e-05 µM; −log10Slope (PTHR1 [1]; [9]): −3.981; cAMP (PTHR1 [1]): ++
AVAEIQLMHQRAKWELQEIGIKITLDLLEAYL [Peptide R2-39],,,−5.314 and −3.58 and −2.2339,−0.2801 and −4.065 and −4.878,EC50 (PTHR1 [3]; [7]): 775 nM and 594 nM
AVAEIQLMHQRAKWELLEELLKILLELLKEYI [Peptide R2-38],−7.566,0.124 µM,−4.789,−5.307,"β-arrestin1 recruitment compared to PTH 1-34 (PTHR1 [3]; FIG. 1, PTH 1-34 positive control): higher levels of recruitment of β-arrestin 1; β1-arrestin (PTHR1 [3]): ++; EC50 (PTHR1 [3]; [7]): 0.0179 nM"
AVAEIQLMHQRAKWGVELQLKVDLRRILEDVY [Peptide R2-35],−9.142,0.00984 µM,−3.628 and −0.891 and −4.077,−0.6156 and −2.473 and −2.432,cAMP accumulation activity compared to control peptide (PTHR1 [1]): activity similar to the control peptide; cAMP (PTHR1 [1]): +
AVAEIQLMHQRAKWSILEELLKILTALLDEYI [Peptide R2-46],,,−3.413 and −1.882 and −2.306,−3.506 and −2.782 and −5.541,EC50 (PTHR1 [2]; [6]): 539 nM and 187 nM and 550 nM; EC50 (PTHR1 [3]; [7]): 565 nM and 447 nM and 394 nM
GVAMIQIMHDIAKIRAEYELREMLLRLLEEIF [Peptide R2-2],−3.889,0.187 µM,2.528 and −0.3398,−1.586 and −3.87,
AVAEIQLMHQRAKWGLELELKEKLRKILEDVY [Peptide R2-26],−14.6415,0.0845 µM,−2.019 and −6.257,−2.291 and −7.462,EC50 (PTHR1 [2]; [6]): 16.1 nM and 12.5 nM; EC50 (PTHR1 [3]; [7]): 27.1 nM and 12.9 nM
AVAEIQLMHQRAKWGLDLELAVKLQEILKDVL [Peptide R2-28],−5.52,0.0924 µM,−3.381,−1.455,EC50 (PTHR1 [2]; [6]): 800 nM
AVAEIQLMHQRAKWKLELELKEKIRKLLEDLL [Peptide R2-29],−16.1973,,−2.874 and −3.055,−5.782 and −7.833,"EC50 (PTHR1 [1]): 0.0604 µM; β-arrestin2 assay activity compared to control peptide (PTHR1 [2]): increased activity as compared to control; β2-arrestin (PTHR1 [2]): ++; EC50 (PTHR1 [2]; −log10EC50, β-arrestin2 recruitment): 4.09 nM and 3.49 nM; β1-arrestin (PTHR1 [3]): +; EC50 (PTHR1 [3]; −log10EC50, β-arrestin1 recruitment): 7.12 nM and 1.68 nM"

Sequence,−log10Slope (PTHR1 [1]; [4]),EC50 (PTHR1 [1]; [5]),−log10Slope (PTHR1 [2]; β-arrestin2 recruitment),−log10Slope (PTHR1 [3]; β-arrestin1 recruitment),other results
AVAEIQLMHQRAKWEIQEIGIKITLDLLQTLK [Peptide R2-41],−2.911,5.57e-05 µM,−4.333,−8.214,cAMP accumulation activity compared to control peptide (PTHR1 [1]): increased activity as compared to the control peptide; cAMP (PTHR1 [1]): ++; EC50 (PTHR1 [2]; [6]): 940 nM; EC50 (PTHR1 [3]; [7]): 3.83 nM
PIPVKDIMDLRAYLRAEYELREMLLRLLEEIF [Peptide R2-19],−5.2427,20.5 µM,,,
SIIGEQLMLLRALLRAEYELREMLLRLLEEIF [Peptide R2-18],−1.186,5940 µM,,,
GVVMLQFMHDVAKIRAEYELREMLLRLLEEIF [Peptide R2-9],−0.02713,,,,
GVSMLQIMHDLAVIRAEYELREMLLRLLEEIF [Peptide R2-4],−13.5432,1.36 µM,,,
GIAVITIMIDYAKLRAEYELREMLLRLLEEIF [Peptide R2-22],7.165,,,,EC50 (PTHR1 [1]): 7.09e-05 µM; cAMP accumulation activity compared to control peptide (PTHR1 [1]): increased activity as compared to the control peptide; cAMP (PTHR1 [1]): ++
GVAELQLMHFRALLRAEYELREMLLRLLEEIF [Peptide R2-7],−0.9597,26100 µM,,,
GVAELQLMHDLAKIKLELELKVKLLEILKDVY [Peptide R2-49],,,,,Emax (PTHR1 [1]): 99.9%; EC50 (PTHR1 [1]; [8]): 1.62 µM; −log10Slope (PTHR1 [1]; [9]): −5.638
GVAEIQLMHDIPVIRAEYELREMLLRLLEEIF [Peptide R2-3],−8.5715,11.8 µM,,,
LILVEQLMDLRAYLRAEYELREMLLRLLEEIF [Peptide R2-16],−8.301,19.6 µM,,,
"LMHNLGKHLNSMERVEWLRKKLQDVHNFVA [PTH 7-36 antago, reference compound]",,,−2.649,−1.192,EC50 (PTHR1 [2]; [6]): 46.9 nM; EC50 (PTHR1 [3]; [7]): 105 nM
AVATIQLMTDIAKIRAEYELREMLLRLLEEIF [Peptide R2-6],−0.3341,,,,
GLAALTIGLLRAKLRAEYELREMLLRLLEEIF [Peptide R2-24],5.587,,,,EC50 (PTHR1 [1]): 4.24e-05 µM; cAMP accumulation activity compared to control peptide (PTHR1 [1]): increased activity as compared to the control peptide; cAMP (PTHR1 [1]): ++
GVALLQIVHDFAKIRAEYELREMLLRLLEEIF [Peptide R2-5],−4.972,,,,
GIAVFTIMHLRIYLRAEYELREMLLRLLEEIF [Peptide R2-17],−2.077,448 µM,,,
AVAEIQLMHQRAKWKQELELEEKNKKILEDVY [Peptide R2-32],−14.3219,0.312 µM,,,
GVAEIQLMVDLDIIRAEYELREMLLRLLEEIF [Peptide R2-12],−2.726,137 µM,,,

# From US12344649B2, “Modulators of parathyroid hormone receptor (PTHR1)” (Flagship Pioneering Innovations VI, LLC, priority 2019, dated 2025)
